Measurements taken from patent US5688767A, “Treatment of endotoxin-associated disorders with cationic peptides” (priority 1996, dated 1997).
≈ marks a conversion by molar mass, not a printed value. Where “and” joins values, the source holds several entries; their conditions need not be identical. Identical values can stand only once.

What was measured:
S. typhimurium = assay: microbe, parasite or virus in culture; type: cell-based, Salmonella typhimurium
Experimental: The minimum inhibitory concentrations of (MIC) of CEME, CEMA and melittin were determined for a number of different bacteria (Table 2). Briefly, cells were grown overnight at 37° C. in LB-S (Luria broth without any salt supplement) and diluted one in 10,000 in the same medium to give concentrations of about 10^4 to 10^5 CFU/ml. The broth dilutions were set up in a 96 well microtiter plate by putting 200 μl of LB-S containing the initial concentration of antibiotic or compound in column 1 and 100 μl of the same medium in columns 2-12. The compounds were diluted by taking 100 μl of broth from column 1 and mixing it with column 2, resulting in a one in two dilution. This was continued to column 10. Finally, 10 μl of bacteria were pipetted into columns 1-11, and the plates incubated overnight at 37° C. The next day the plates were scored for growth in the wells, and the MIC determined.
(§1) Bacteria included the Bort strain of E. coli (Bortolussi, et al., Inf. Immun., 25:293, 1979) that was originally derived from a case of neonatal meningitis, and which is therefore considered a relevant pathogenic strain to study, and the 0111:B4 strain of E. coli (kindly provided by Dr. D. Morrison) which is a standard source of endotoxin. (Kelly, et al., Inf. Immun., 59:4491, 1991). In addition, P. aeruginosa PA01 strain H103, P. aeruginosa M2, P. aeruginosa K799, Eschericha coli UB 1005, Enterobacter cloacae 218S, Salmonella typhimurium MS7953s, Klebsiella pneumoniae ATCC 13883, Xanthomonas maltophilia ATCC 13637, and Acinetobacter calcoacetious 8193 were employed. LPS was obtained from E. coli Bort by the technique of Westphal and Jann, (Westphal, et al., Acad. Press, Inc. NY., 5:83) and from P. aeruginosa H103 by the method of Darveau and Hancock, (Darveau, et al., J. Bacteriol, 155:831, […]). E. coli 0111:B4 LPS was purchased from Sigma.

[1] = test system: Acinetobacter calcoaceticus 8193; assay: MIC against Gram-negative bacteria; type: cell-based
From the text: as §1

[2] = test system: Klebsiella pneumoniae ATCC 13883; assay: MIC against Gram-negative bacteria; type: cell-based
From the text: as §1

[3] = test system: Xanthomonas maltophilia ATCC 13637; assay: MIC against Gram-negative bacteria; type: cell-based
From the text: as §1

[4] = test system: P. aeruginosa H309 or E. cloacae 218R1; assay: Lysozyme lysis assay (outer membrane permeabilization); type: cell-based, Pseudomonas aeruginosa; Enterobacter cloacae; settings: 50 μg/ml lysozyme, varying concentrations of compound
Experimental: Membrane permeabilization by polycationic compounds was measured in two different assays. The first assay measured membrane disruption by the ability of lysozyme to reach the periplasm and cause cell lysis. […] The uptake of lysozyme into whole cells due to membrane permeabilization by various compounds was previously described in Hancock, et al., Antimicrobial Agents and Chemo., 19:777, 1981. Overnight cultures of P. aeruginosa H309 or E. cloacae 218R1 grown in LB-S were diluted 1 in 50 in fresh medium and grown to an OD600 =0.5-0.6. The cells were harvested in a Silencer H-103N clinical centrifuge at 1800 g for 10 min, washed once with one volume of assay buffer (5 mM HEPES pH 7.2, 5 mM KCN), and resuspended in the same buffer to an OD600 of 0.5. Assays consisted of 600 μl of cells with 50 μg/ml of chicken egg white lysozyme and varying concentrations of cationic compounds. Cell lysis was measured as a decrease in the OD600 in a Perkin-Elmer dual beam spectrophotometer. Parallel experiments performed without lysozyme enabled the measurement of the lytic activity of the compounds themselves. To test whether or not permeability to lysozyme could be inhibited by divalent cations, various concentrations of MgCl2 were added to the assay after the addition of lysozyme and before the addition of the test compound.

[5] = test system: TNF induced by viable bacteria in RAW 264.7 cells; assay: TNF induction in RAW 264.7 cells by intact bacteria / secreted LPS-protein complexes; type: cell-based, murine; settings: for Unit of TNF induced / Unit of TNF induced (% of control): 20 μg of peptide
Experimental: After an overnight incubation, the media was aspirated from all the wells. 100 μl of Lipopolysaccharide (LPS) was added at 100 ng/100 μl. CEME or CEMA was added at the desired concentration/100 μl to specified wells. […] The plates were then incubated for six hours at 37° C., 5% CO2. The supernatant was then removed from the wells and stored overnight at 4° C. For those wells in which whole bacteria were added directly to the wells, the supernatant was centrifuged in 0.2 μm filter eppendorf tubes for 5 minutes.
In intact cell induction experiments, 10^6 E. coli Bort cells induced 11,967-14,805 Units of TNF per ml in RAW cells.
To examine effects on whole bacterium induction of TNF, bacteria, grown in Luria broth overnight (approximately 1×10^8 /ml) and diluted to […] organisms per ml, and RAW 264.7 cells were each added to separate compartments of a transwell diffusion chamber, which contained a 0.2 μm membrane filter separating the two compartments. Peptides were added, when appropriate, to the bacterium-containing compartment at a final concentration of 20 μg/ml. TNF levels were measured after 6 hours of incubation at 37° C. in 5% CO2. All assays were performed three times with similar results.
TNF was measured in cell culture supernatants and mouse serum on the basis of cytoxicity for L929 fibroblast cell. […] TNF activity was expressed in units as the reciprocal of the dilution of TNF that caused 50% cytotoxicity of L929 cells, as computed using the ELISA+program (Meddata, Inc., New York, N.Y.). In our hands one unit of TNF corresponded to 62.5 pg/ml of recombinant murine TNF (Genzyme Corp.).
In man and animal infections, LPS is probably not released as a purified molecule, but rather in association with other bacterial cell components. To mimic this situation, a model system was employed in which the LPS-protein complexes that are naturally released from bacteria were used as a stimulus to induce TNF production in RAW 264.7 cells. Viable cells of E. coli Bort and 0111:B4 or P. aeruginosa H103 were incubated in a transwell filter unit in which a 0.2 μm membrane filter separated the intact bacteria from the compartment containing the RAW 264.7 cells. […] Addition of 20 μg/ml of peptide to 10^5, 10^6, and 10^7 viable to E. coli 0111:B4 (Table 11) and Bort cells reduced the TNF levels by 90%-96%.

[6] = 10^5 viable E. coli 0111:B4 cells
[7] = 10^6 viable E. coli 0111:B4 cells
[8] = 10^7 viable E. coli 0111:B4 cells

Compound: CC[C@H](C)[C@H](NC(=O)CNC(=O)[C@@H](NC(=O)[C@H](CCCCN)NC(=O)[C@H](CCCCN)NC(=O)[C@H](Cc1ccccc1)NC(=O)[C@H](CC(C)C)NC(=O)[C@H](CCCCN)NC(=O)[C@H](Cc1c[nH]c2ccccc12)NC(=O)[C@@H](N)CCCCN)[C@@H](C)CC)C(=O)NCC(=O)N[C@@H](C)C(=O)N[C@H](C(=O)N[C@@H](CC(C)C)C(=O)N[C@@H](CCCCN)C(=O)N[C@H](C(=O)N[C@@H](CC(C)C)C(=O)N[C@H](C(=O)N[C@H](C(=O)NCC(=O)N[C@@H](CC(C)C)C(=O)N1CCC[C@H]1C(=O)N[C@@H](C)C(=O)N[C@@H](CC(C)C)C(=O)N[C@@H](CCCCN)C(=O)N[C@@H](CC(C)C)C(=O)N[C@H](C(=O)N[C@@H](CCCCN)C(=O)O)[C@@H](C)O)[C@@H](C)O)[C@@H](C)O)C(C)C)C(C)C [CEMA]
- MIC (S. typhimurium; Salmonella typhimurium MS7953s): 4 µg/mL (≈ 1.3 µM)
- MIC (S. typhimurium; strain C587, Parent of C590): 5.6 µg/mL (≈ 1.83 µM)
- MIC (S. typhimurium; strain C590, Defensin sensitive): 1.4 µg/mL (≈ 0.457 µM)
- MIC [1]: 1 µg/mL (≈ 0.326 µM)
- MIC [2]: 12 µg/mL (≈ 3.91 µM)
- MIC [3]: 12 µg/mL (≈ 3.91 µM)
- permeabilization of outer membrane to lysozyme [4]: stronger permeabilizer for lysozyme than polymyxin B
- reduction in TNF levels ([5]; 20 μg of CEMA, 10^6 E. coli Bort cells, two independent experiments): 96% and 97%
- reduction of TNF induction ([5]; 20 μg/ml CEMA, 10^6 viable P. aeruginosa): 96%
- Unit of TNF induced [5, 6]: 552 ± 61 units/ml
- Unit of TNF induced (% of control) [5, 6]: 4.5%
- Unit of TNF induced [5, 7]: 1892 ± 1370 units/ml
- Unit of TNF induced (% of control) [5, 7]: 6.0%
- Unit of TNF induced [5, 8]: 4126 ± 3890 units/ml
- Unit of TNF induced (% of control) [5, 8]: 8.5%
